Tested on: C6-BU1-glioma cells
Test: 86Rubidium efflux from C6-BU1-glioma cells
Format: cell-based
Settings: Rattus norvegicus, C6-BU-1; 1 μM test substance applied; increase in 86Rb efflux above basal efflux caused by ionomycin set at 100%; read-out: residual efflux
Protocol: ^86 Rubidium Efflux from C6-BU1-glioma cells
The experiments were carried out in accordance with the method described by Tas et al. (Neurosci. Lett. 94, 279-284, (1988)), with slight changes. The increase in efflux above the basal efflux caused by ionomycin is calculated from the data and set at 100%. The stimulations in the presence of test substances are then based on this value.

SMILES | activity at 1 µM [%]
COC(=O)C1=C(C)N(C)C2=C(C(=O)OC2)C1c1cccc(F)c1F (stereo not drawn) [Example 11, Methyl 1,4,5,7-tetrahydro-4-(2,3-difluorophenyl)-1,2-dimethyl-5-oxo-furo-[3,4b]-pyridine-3-carboxylate] | 73
CC1=C(C(=O)OC(C)C)C(c2cccc(Cl)c2Cl)C2=C(CCCC2=O)N1C (stereo not drawn) [Example 1, Isopropyl 4-(2,3-dichlorophenyl)-1,2-dimethyl-5-oxo-1,4,5,7,8-hexahydroquinoline-3-carboxylate] | 38
COC(=O)C1=C(C)N(C)C2=C(C(=O)OC2)C1c1ccc(Cl)cc1 (stereo not drawn) [Example 8, Methyl1,4,5,7-tetrahydro-4-(4-chlorophenyl)-1,2-dimethyl-7-oxo-furo-[3,4b]-pyridine-3-carboxylate] | 53
